Measured values reported in patent publication US11135252B2, “Probiotic therapies for developmental disorders and other neurological disorders” (Baylor College of Medicine, priority 2016, dated 2021).

Key:
GF mice = assay: Three-chamber social test in germ-free mice treated with L. reuteri; format: in vivo
Description: C57Bl6/J mice were obtained from Jackson Laboratories (#000-664) and were kept on a 12 h light/dark cycle and had access to food and water ad libitum. Females were placed on either a regular diet (RD) consisting of 13.4% kcal from fat, 30% kcal from protein, and 57% kcal from carbohydrates (Lab Diets, #5001) or high fat diet (HFD) consisting of 60% kcal from fat, 20% kcal from protein, and […] kcal from carbohydrates (Research Diets, #D12492). Maternal weight was measured weekly. Maternal total and fat mass were measured using an mq7.5 Minispec NMR body composition analyzer. After eight weeks on diet, females were paired with C57B16/J adult males to produce subject offspring. Resulting offspring were weaned at three weeks of age and all placed on RD, regardless of maternal diet (MRD or MHFD). Germ-free mice (C57B16/J) were maintained in a flexible isolator fed with HEPA-filtered air and provided with irradiated food and water. Germ-free offspring were weaned at four weeks of age. All behavioral tests were performed on 7-12-week-old male mice.
Crawley's three-chamber test for sociability and preference for social novelty was performed as described (Silverman et al., 2010). In brief, the mouse first experienced a 10-minute period of habituation during which it was allowed to freely explore a 60×40×23 cm Plexiglass arena divided into three equally sized, interconnected chambers (Left, Center, Right). Sociability was measured during a second ten-minute period in which the subject could interact either with an empty wire cup (Empty) or a wire cup containing an age and sex-matched stranger conspecific (Mouse 1). Time spent interacting (sniffing, crawling upon) with either the empty cup or the stranger mouse contained in the other cup as well as time spent in each chamber was recorded using the AnyMaze software, by independent observers. […] Time spent in each chamber as well as time spent interacting with either Mouse 1 or Mouse 2 was recorded using the automated AnyMaze software by independent observers. […]

MRD offspring = assay: Three-chamber social test in MRD offspring; format: in vivo, mice; details: in drinking water
Description: Crawley's three-chamber test for sociability and preference for social novelty was performed as described (Silverman et al., 2010). In brief, the mouse first experienced a 10-minute period of habituation during which it was allowed to freely explore a 60×40×23 cm Plexiglass arena divided into three equally sized, interconnected chambers (Left, Center, Right). Sociability was measured during a second ten-minute period in which the subject could interact either with an empty wire cup (Empty) or a wire cup containing an age and sex-matched stranger conspecific (Mouse 1). Time spent interacting (sniffing, crawling upon) with either the empty cup or the stranger mouse contained in the other cup as well as time spent in each chamber was recorded using the AnyMaze software, by independent observers. Empty cup placement in the Left or Right chamber during the Sociability period was counterbalanced between trials. Finally, preference for social novelty was assayed by introducing a second stranger mouse (Mouse 2) into the previously the empty wire cup. Time spent in each chamber as well as time spent interacting with either Mouse 1 or Mouse 2 was recorded using the automated AnyMaze software by independent observers. Lactobacillus reuteri MM4-1A (ATCC-PTA-6475) and Lactobacillus johnsonii (ATCC 33200) were cultured anaerobically in MRS broth in a 90% N2, 5% CO2, 5% H2 environment. L. reuteri was heat-killed by keeping the bacteria at 80° C. for 20 minutes (Wang et al., 2010). Bacterial viability was assessed by plating and the efficacy of the heat-kill procedure was confirmed by the absence of colony growth following plating. Cultures were centrifuged, washed, and resuspended in anaerobic solution (PBS) and frozen at −80° C. until use. PBS, live or heat-killed L. reuteri were added to the drinking water, which was changed daily to minimize dosage variability. Whereas the experimental group received live bacteria, one control group received identically prepared cultures of heat-killed bacteria. A second group of control mice received water treated with PBS alone. […]

Lactobacillus reuteri MM4-1A (ATCC-PTA-6475) [L. reuteri]
sociability (GF mice; L. reuteri in drinking water): reverses the deficient sociability | social novelty (GF mice; L. reuteri in drinking water): reverses | social behavior deficits (GF mice; L. reuteri treatment): sufficient to restore the social behavior deficits | sociability (chamber containing a mouse, FIG. 16A) (MRD offspring): preferred the chamber containing a mouse | social behavior (MRD offspring): did not change the social behavior | social novelty (chamber containing Mouse 2, FIG. 16B) (MRD offspring): preferred
